Measurements taken from article PMC5910032 (ACS synthetic biology, 2018).
pEC50, pIC50: −log10 of the molar value.

Assays:
Format in all cases: binding
[1] = tested on: FITC-E2 scFv VH W118G; assay: SPR inhibition in solution assay
[2] = tested on: FITC-E2 scFv (wild-type); assay: fluorescein fluorescence quenching, titration of purified scFv
[3] = tested on: FITC-E2 scFv VH W118G; assay: dose-dependent rescue of fluorescein quenching

| Compound | pIC50 [1] | pEC50 [2] | pEC50 [3] |
| --- | --- | --- | --- |
| O=C1OC2(c3ccc(O)cc3Oc3cc(O)ccc32)c2ccccc21 [fluorescein] | 6.53 | 7.57 to 7.64 |  |
| c1ccc2[nH]ccc2c1 [indole] |  |  | 3.66 |
